Measurements as given in article PMC10098953, “Genome Mining Enabled by Biosynthetic Characterization Uncovers a Class of Benzoxazolinate‐Containing Natural Products in Diverse Bacteria” (Angewandte Chemie (International Ed. in English), 2022).

Tested on: T1, PbzB
T1 construct: recombinant, His-SUMO-tag, expressed in and purified from E. coli BL21(DE3); homodimer (apo crystal structure)
Test: steady-state kinetics of 2-hydroxymethylserine formation (LC-MS)
Type: biochemical, Pseudomonas chlororaphis subsp. piscium
Conditions: cofactors PLP and 5,10-methylenetetrahydrofolate (mTHF); potassium phosphate buffer pH 7.5 (stated for the glycine assay; same condition for serine)

SMILES | Km [µM]
N[C@H](CO)C(=O)O [D-serine] | 603 ± 56.7
N[C@@H](CO)C(=O)O [L-serine] | 69.52 ± 0.03
